Counter-ions that a name gives are not always drawn.
Experiments:
[1] = Solubility (logS experimental, aqueous solubility, DMSO); format: physicochemical
[2] = cited from earlier work
[3] = test system: S100B; test: S100B level in hippocampal homogenates after KA-induced seizures on P15; format: in vivo, rat; conditions: Mzc 5 mg/kg ip at 3 and 9 hr after KA on P15; 12 hr recovery; mean±SEM
Procedure: (§1) Hippocampal homogenates were prepared by sonication in protease inhibitor cocktail (1 μg leupeptin (Sigma, St. Louis, Mo.), 0.001 M 4-dithio-L-threitol (DTT, Sigma), 0.002 M sodium orthovanadate (Sigma) and 0.001 M phenylmethanesulfonyl fluorid (PMSF, FLUKA, Switzerland) in 1 ml PBS). Total protein concentration was measured using commercially available reagents (BCA, Pierce, Rockford, Ill.).
(§2) Levels of IL-1β, IL-6, and TNF-α, were measured in hippocampal homogenates by enzyme linked immunosorbent assay using commercially available plates and reagents (ELISA; MesoScale Discovery, MSD, Gaithersburg, Md.). S100B levels were measured as described (26). Samples were analyzed in duplicates and compared with known concentrations of protein. Plates were analyzed using the SECTOR Imager 2400 (MSD).
(§3) To determine whether suppression of early cytokine increases would prevent long-term glial activation and improve neurobehavioral outcome after early-life seizures, P15 rats were administered Minozac (Mzc). […] Mzc (5 mg/kg) or diluent (saline) was administered via ip injection at 3 and 9 hr following KA injection on P15 (FIG. 7). Control animals were injected an equal volume of saline (Sal). At 12 hr, animals were sacrificed, and tissues were processed for analysis of pro-inflammatory cytokines by ELISA as above.

[4] = test system: GFAP; test: Immunohistochemical quantification of GFAP immunoreactive cells in hippocampus (glial activation); format: in vivo, rat; conditions: Mzc 5 mg/kg ip at 3 and 9 hr after KA on P15; 30 days recovery; mean±SEM
Procedure: (§4) Immunohistochemical detection of hippocampal markers of glial activation and astrocyte glutamate transporters was performed in five μm paraffin-embedded sections using Vectastain Elite ABC immunodetection kits and diaminobenzidine substrate (DAB) (Vector Laboratories, Burlingame Calif.). The following primary antibodies were used: GFAP (1:1500, mouse monoclonal, Sigma); S100B (1:1500, rabbit polyclonal, DAKO Cytomation, Carpinteria, Calif.); Ibal (1:400, goat polyclonal, Abcam, Cambridge, Mass.); FH (1:400, goat polyclonal, Quidel); β-clusterin (1:100, goat polyclonal, Santa Cruz); GLAST (1:5000 guinea pig polyclonal, Chemicon International, Temecula, Calif.) and GLT-1 (1:5000, guinea pig polyclonal, Chemicon). Control sections were incubated in normal serum or PBS in place of primary antibody. […]
(§5) Sections were examined under brightfield microscopy by two blinded observers (Nikon Eclipse E800). For GFAP, S100B, Ibal, FH, clusterin, GLAST and GLT-1 sections, the CAI, CA2, CA3, DG and PoDG were photographed at 10× magnification, and images were converted to grayscale for quantification of immunoreactive cells. The percentage of positive cells in the hippocampal regions specified was measured by thresholding for dark objects indicative of immunoreactive cells (Metamorph, Universal Imaging Corporation, Sunnyvale, Calif.). […] Changes in the morphology of immunoreactive cells were not assessed. […]

[5] = test system: IL-6; test: ELISA of hippocampal homogenates after KA-induced seizures on P15: IL-6; format: in vivo, rat; conditions: Mzc 5 mg/kg ip at 3 and 9 hr after KA on P15; 12 hr recovery; mean±SEM
Procedure: as §1, §2, §3

[6] = test system: TNF-α; test: ELISA of hippocampal homogenates after KA-induced seizures on P15: TNF-α; format: in vivo, rat; conditions: Mzc 5 mg/kg ip at 3 and 9 hr after KA on P15; 12 hr recovery; mean±SEM
Procedure: as §1, §2, §3

[7] = test system: IL-1β; test: ELISA of hippocampal homogenates after KA-induced seizures on P15: IL-1β; format: in vivo, rat; conditions: Mzc 5 mg/kg ip at 3 and 9 hr after KA on P15; 12 hr recovery; mean±SEM
Procedure: as §1, §2, §3

[8] = test system: Alzheimer's disease mouse model; conditions: cited from earlier work
[9] = test system: KA-induced seizures on P15; test: Y-maze test of spontaneous alternation after KA-induced early-life seizures; format: in vivo, rat; conditions: Mzc 5 mg/kg ip at 3 and 9 hr after KA on P15; after 30 days recovery; mean±SEM
Procedure: On either postnatal day (P)15 or 45, rats were administered either KA (Ocean Produce International, Nova Scotia) or equivalent volume of vehicle, phosphate-buffered saline (PBS, pH 7.4) (2). The dose of KA on P 15 (5 mg/kg) and P45 (15 mg/kg) was based on the age-dependent difference in threshold for KA-induced seizures (22). All injections were intraperitoneal (ip).
The Y-maze test of spontaneous alternation was used to evaluate hippocampus-dependent spatial learning (26, 27). Testing began on P27 when animals were first able to decide between the left or right arm of the maze. Testing was performed by a blinded observer on alternate days until P55. Each animal started in the vertical arm of the Y-maze. If the animal selected a different arm on the second run in the maze, it was scored as alternating. The percent alternation over the duration of testing was calculated for each animal.
as §3, with “At 12 hr, animals were sacrificed, and tissues were processed for analysis of pro-inflammatory cytokines by ELISA as above.” left out

[10] = test system: S100B; test: Immunohistochemical quantification of S100B immunoreactive cells in hippocampus (glial activation); format: in vivo, rat; conditions: Mzc 5 mg/kg ip at 3 and 9 hr after KA on P15; 30 days recovery; mean±SEM
Procedure: as §4, §5

Cc1cc(-c2ccccc2)nnc1N1CCN(c2ncccn2)CC1.Cl.Cl [2-(4-(4-methyl-6-phenylpyridazin-3-yl)piperazin-1-yl)pyrimidine dihydrochloride salt]
solubility in DMSO [1]: soluble in DMSO

Cc1cc(-c2ccccc2)nnc1N1CCN(c2ncccn2)CC1 [Mzc, 2-(4-(4-methyl-6-phenylpyridazin-3-yl)piperazin-1-yl)pyrimidine dihydrochloride monohydrate]
CNS penetration [2]: CNS-penetrant | bioavailability [2]: bioavailable | toxicity [2]: non-toxic | water solubility [2]: water-soluble | S100B level in hippocampal brain homogenates [3]: 89.1±9.7 % control | GFAP immunoreactive cells in hippocampus [4]: 20.9±1.8 % immuno-positive cells | IL-6 level in hippocampal brain homogenates [5]: 103.2±3.8 % control | TNF-α level in hippocampal brain homogenates [6]: 98.5±3.9 % control | IL-1β level in hippocampal brain homogenates [7]: 103.7±4.6 % control | effect on hippocampal pro-inflammatory cytokine upregulation [8]: inhibits hippocampal pro-inflammatory cytokine upregulation | effect on hippocampal-dependent behavioral deficits [8]: attenuates hippocampal-dependent behavioral deficits | effect on synaptic dysfunction [8]: suppresses synaptic dysfunction | percent alternation in Y-maze [9]: 79.5±2.5 % alternation | S100B immunoreactive cells in hippocampus [10]: 8.1±0.9 % immuno-positive cells

From patent US20100210590A1, “COMPOSITIONS AND TREATMENTS FOR SEIZURE-RELATED DISORDERS” (NORTHWESTERN UNIVERSITY, priority 1995, published 2010)
